Laboratory results published in PMC8297402, “Trifluoromethyl-substituted 3,5-bis(arylidene)-4-piperidones as potential anti-hepatoma and anti-inflammation agents by inhibiting NF-кB activation” (Journal of Enzyme Inhibition and Medicinal Chemistry, 2021).
Like-named read-outs stand apart in the source and are kept apart here.

How the values were obtained:
HepG2 = assay: Modified MTT cytotoxicity assay, HepG2; type: cell-based, Human; conditions: for IC50: MTT, 24 h incubation, three replicates, read-out: Cytotoxicity IC50 HepG2; for SI (selectivity index) HepG2: quotient of IC50 for normal (LO2) and malignant (HepG2) cells
Experimental: (§1) The HepG2, SMMC-7721, and LO2 cell lines were maintained at 37 °C, 5% humidified CO2, and 95% atmosphere. Dulbecco's Modified Eagle (DMEM) medium containing 10% foetal bovine serum (FBS) was used for culturing the HepG2 cell line; meanwhile, Roswell Park Memorial Institute (RPMI) 1640 medium containing 10% FBS was used for culturing other cell lines (SMMC-7721, LO2). The HepG2, SMMC-7721 and LO2 cells were seeded in a 96-well plate in 200 μL of medium per well at a density of approximately 8 × 10^3 cells/well and cultured for 24 h, followed by incubation in an incubator of indicated compounds with successive concentrations (10, 5, 2.5, 1.25, 0.625, 0.3125 μg/mL) for 24 h. In the control group, cells were only cultured with culture media. After the media were removed, 20 μL of MTT (5 mg/mL) was added, then cells were incubated for 4 h at 37 °C. […] GraphPad Prism 5 software was used to calculate their IC50 values. Every IC50 value was the average of three replicates. Doxorubicin (DOX) and curcumin were used as positive controls.

SMMC-7721 = assay: Modified MTT cytotoxicity assay, SMMC-7721; type: cell-based, Human; conditions: for IC50: MTT, 24 h incubation, three replicates; for SI (selectivity index) SMMC-7721: quotient of IC50 for normal (LO2) and malignant (SMMC-7721) cells
Experimental: as §1

[1] = Modified MTT cytotoxicity assay, normal heptical cell line LO2; type: cell-based, human; conditions: human, LO2 cells (normal hepatic cell line), 24 h incubation
Experimental: as §1

RAW264.7 cell = assay: MTT toxicity pre-experiment on RAW264.7 macrophagocyte; type: cell-based, mouse; conditions: for viability at 5 µM: Mus musculus, RAW264.7, BAPs 5 μM, read-out: Survival rate RAW264.7 cell; for Survival rate RAW264.7 cell: BAPs 5 μM
Experimental: Lipopolysaccharide (LPS) is a key constituent of Gram-negative bacterial endotoxin, which is used to induce an inflammatory response in corresponding inflammatory cells. TNF-α and IL-6 are two kinds of representative pro-inflammatory factors, which produced by LPS-stimulated RAW264.7 macrophage. In our pre-experiments, the toxicity against RAW264.7 macrophagocyte for all title compounds was tested by the MTT assay, and the results were listed in Table 2. The survival rates were above 80% for all BAPs (4-30) at the concentration of 5.0 μM.

TNF-α = assay: ELISA of TNF-α release in LPS-stimulated RAW264.7 cells; type: cell-based, mouse; conditions: RAW264.7, ELISA; for inhibition at 5 µM: Mus musculus, RAW264.7, BAPs (5 μM) + LPS (1 μg/mL), read-out: Inhibition rate TNF-α; for Inhibition rate TNF-α: BAPs (5 μM) + LPS (1 μg/mL)
Experimental: (§2) We tested by inhibiting the secretion of TNF-α and IL-6 to better evaluated the anti-inflammatory effects of BAPs. […] Under the stimulation of LPS (1.0 μg/mL) with RAW264.7 cells, the release of TNF-α and IL-6 was detected. Besides, after treated with BAPs (5.0 μM) and LPS (1.0 μg/mL), the release of TNF-α and IL-6 was measured with an ELISA kit (eBioScience, San Diego, California), respectively. In general terms, pyrrolidine dithiocarbamate (PDTC, 30 μM) or BAP (5.0 μM) was used to pretreat cells for 2 h, respectively. Then, LPS (1.0 μg/mL) was added and cells were incubated for another 22 h. Finally, the culture media were centrifuged at 1000 rpm for 10 min, and the expression levels of TNF-α and IL-6 were determined by ELISA.

IL-6 = assay: ELISA of IL-6 release in LPS-stimulated RAW264.7 cells; type: cell-based, mouse; conditions: RAW264.7, ELISA; for inhibition at 5 µM: Mus musculus, RAW264.7, BAPs (5 μM) + LPS (1 μg/mL), read-out: Inhibition rate IL-6; for Inhibition rate IL-6: BAPs (5 μM) + LPS (1 μg/mL)
Experimental: as §2

A549 = assay: Modified MTT cytotoxicity assay, A549; conditions: for SI (selectivity index) A549: quotient of IC50 for normal (HHL-5) and malignant (A549) cells
Experimental: (§3) To further verify the anti-tumour activity, one human non-small cell lung cancer cell line (A549), one human ovarian cancer cell line (A2780), and one human normal heptical cell line (HHL-5) were screened by BAPs (4–30) using a modified MTT assay (Supporting Information). DOX and curcumin were selected as positive controls.
(§4) The optical density (OD) value of each well was measured on a
(§5) multi-well plate reader (TECAN, Mӓnnedorf, Switzerland ) at 570 nm.
(§6) Every IC 50 value was the average of three replicates.
(§7) Doxorubicin (DOX) and Curcumin were used as positive controls.

A2780 = assay: Modified MTT cytotoxicity assay, A2780; conditions: for SI (selectivity index) A2780: quotient of IC50 for normal (HHL-5) and malignant (A2780) cells
Experimental: as §3, §4, §5, §6, §7

[2] = Modified MTT cytotoxicity assay, normal heptical cell line HHL-5; conditions: human, HHL-5 cells (normal hepatic cell line)
Experimental: as §3, §4, §5, §6, §7

LO2 = assay: Modified MTT cytotoxicity assay, normal heptical cell line LO2; type: cell-based, human; conditions: 24 h incubation
Experimental: as §1

HHL-5 = assay: Modified MTT cytotoxicity assay, normal heptical cell line HHL-5; conditions: read-out: Cytotoxicity IC50 HHL-5; MTT, normal heptical cell line
Experimental: as §3, §4, §5, §6, §7

in vitro = conditions: human
Experimental: as §3, §4, §5, §6, §7

[3] = Homo sapiens, A549, read-out: Cytotoxicity IC50 A549, MTT, non-small cell lung cancer cell line
[4] = Homo sapiens, A2780, read-out: Cytotoxicity IC50 A2780, MTT, ovarian cancer cell line
[5] = read-out: Cytotoxicity IC50 A549, MTT, non-small cell lung cancer cell line
[6] = read-out: Cytotoxicity IC50 A2780, MTT, ovarian cancer cell line

| Structure (SMILES) | melting point [°C] | IC50 (HepG2; Homo sapiens, HepG2, 24 h) [µM] | SI (selectivity index) HepG2 (HepG2) | IC50 (SMMC-7721; Homo sapiens, SMMC-7721, 24 h) [µM] | SI (selectivity index) SMMC-7721 (SMMC-7721) | IC50 at 24 h [1] [µM] | viability at 5 µM (RAW264.7 cell) [%] | inhibition at 5 µM (TNF-α) [%] | inhibition at 5 µM (IL-6) [%] | IC50 (A549; [3]) [nM] | SI (selectivity index) A549 (A549) | IC50 (A2780; [4]) [nM] | SI (selectivity index) A2780 (A2780) | IC50 [2] [µM] | also measured |
| --- | --- | --- | --- | --- | --- | --- | --- | --- | --- | --- | --- | --- | --- | --- | --- |
| O=C1/C(=C/c2ccccc2C(F)(F)F)CN(S(=O)(=O)c2ccc([N+](=O)[O-])cc2)C/C1=C\c1ccccc1C(F)(F)F [BAP 6] | 204 to 206 | 4.3 ± 0.2 | 3.7 | 10.4 ± 0.2 | 1.5 | 15.7 ± 1.3 | 85.7 ± 3.1 | 61 ± 2.7 | 68.2 ± 3 | 7580 ± 1760 | 1.0 | 28800 ± 5330 | 0.3 |  |  |
| O=C1/C(=C/c2ccccc2C(F)(F)F)CN(S(=O)(=O)c2ccc(Br)cc2)C/C1=C\c1ccccc1C(F)(F)F [BAP 10] | 197 to 199 | 14.7 ± 0.1 | 1.2 | 4.7 ± 0.1 | 3.6 | 17 ± 0.4 | 83.8 ± 2.9 | 59.2 ± 2.8 | 67.8 ± 3.2 | 5010 ± 450 | 2.9 | 2340 ± 390 | 6.2 | 14.5 ± 0.1 |  |
| O=C1/C(=C/c2cccc(C(F)(F)F)c2)CN(S(=O)(=O)c2ccccc2)C/C1=C\c1cccc(C(F)(F)F)c1 [BAP 13] | 151 to 153 | 3.5 ± 0.1 | 3.1 | 5.7 ± 0.1 | 1.8 | 10.1 ± 0.4 | 82.5 ± 1.3 | 56.3 ± 2.1 | 48.9 ± 2.9 | 250 ± 10 | 11.6 | 160 ± 10 | 18.1 | 2.9 ± 0.2 |  |
| CC(=O)Nc1ccc(S(=O)(=O)N2C/C(=C\c3cccc(C(F)(F)F)c3)C(=O)/C(=C/c3cccc(C(F)(F)F)c3)C2)cc1 [BAP 21] |  |  | 11.1 |  | 2.8 |  |  |  |  |  | 14.3 |  | 17.6 |  | IC50 (HepG2): 1.3 ± 0.1 µM; IC50 (SMMC-7721): 5.1 ± 0.1 µM; IC50 (LO2): 14.4 ± 0.1 µM; Survival rate RAW264.7 cell (RAW264.7 cell): 90.2 ± 3.6%; Inhibition rate TNF-α (TNF-α): 78.5 ± 4.2%; Inhibition rate IL-6 (IL-6): 71.6 ± 5.3%; IC50 (A549; [5]): 210 ± 10 nM; IC50 (A2780; [6]): 170 ± 10 nM; IC50 (HHL-5): 3 ± 0.6 µM |
| COc1cccc2c1C(=O)c1c(O)c3c(c(O)c1C2=O)C[C@@](O)(C(=O)CO)C[C@@H]3O[C@H]1C[C@H](N)[C@H](O)[C@H](C)O1 [DOX, Doxorubicin, reference compound] |  | ~1.3 | 6.8 | ~1.7 | 5.2 | 8.9 ± 0.5 |  |  |  | 290 ± 70 | 42.1 | 190 ± 10 | 64.2 |  | IC50 (in vitro): 12.2 ± 0.4 µM; SI (selectivity), bound stated for A549 and A2780 together (A549; A549 and A2780 vs HHL-5): > 40 |
| CC(=O)Nc1ccc(S(=O)(=O)N2C/C(=C\c3ccccc3C(F)(F)F)C(=O)/C(=C/c3ccccc3C(F)(F)F)C2)cc1 [BAP 12] |  |  | 1.2 |  | 1.4 |  |  |  |  |  | 3.3 |  | 6.5 |  | IC50 (HepG2): 12.9 ± 0.1 µM; IC50 (SMMC-7721): 10.9 ± 0.4 µM; IC50 (LO2): 15.6 ± 1.3 µM; Survival rate RAW264.7 cell (RAW264.7 cell): 86.4 ± 0.7%; Inhibition rate TNF-α (TNF-α): 67.2 ± 2.4%; Inhibition rate IL-6 (IL-6): 62.8 ± 3.0%; IC50 (A549; [5]): 2390 ± 90 nM; IC50 (A2780; [6]): 1220 ± 60 nM; IC50 (HHL-5): 7.9 ± 0.2 µM |

More lines, main results first:

| melting point [°C] | Structure (SMILES) | IC50 (HepG2; Homo sapiens, HepG2, 24 h) [µM] | SI (selectivity index) HepG2 (HepG2) | IC50 (SMMC-7721; Homo sapiens, SMMC-7721, 24 h) [µM] | SI (selectivity index) SMMC-7721 (SMMC-7721) | IC50 at 24 h [1] [µM] | viability at 5 µM (RAW264.7 cell) [%] | inhibition at 5 µM (TNF-α) [%] | inhibition at 5 µM (IL-6) [%] | IC50 (A549; [3]) [nM] | SI (selectivity index) A549 (A549) | IC50 (A2780; [4]) [nM] | SI (selectivity index) A2780 (A2780) | IC50 [2] [µM] | also measured |
| --- | --- | --- | --- | --- | --- | --- | --- | --- | --- | --- | --- | --- | --- | --- | --- |
| 220 to 222 | O=C1/C(=C/c2ccc(C(F)(F)F)cc2)CN(S(=O)(=O)c2ccc(Cl)cc2)C/C1=C\c1ccc(C(F)(F)F)cc1 [BAP 27] | 1.4 ± 0.2 | 11.3 | 1.8 ± 0.2 | 8.8 | 15.8 ± 0.4 | 86.4 ± 4.8 | 69.9 ± 2.7 | 67.3 ± 2.2 | 140 ± 40 | 65.0 | 197 ± 50 | 46.2 | 9.1 ± 0.2 |  |
| 135 to 137 | O=C1/C(=C/c2cccc(C(F)(F)F)c2)CN(S(=O)(=O)c2ccc(Br)cc2)C/C1=C\c1cccc(C(F)(F)F)c1 [BAP 19] | 6.5 ± 0.2 | 1.7 | 7.6 ± 0.4 | 1.4 | 11 ± 0.2 | 81.9 ± 0.6 | 49.2 ± 3.7 | 56.3 ± 1.3 | 120 ± 10 | 113.3 | 210 ± 30 | 64.8 | 13.6 ± 0.5 |  |
| 196 to 198 | O=C1/C(=C/c2cccc(C(F)(F)F)c2)CN(S(=O)(=O)c2ccc([N+](=O)[O-])cc2)C/C1=C\c1cccc(C(F)(F)F)c1 [BAP 15] | 2.7 ± 0.1 | 4.7 | 5 ± 0.1 | 2.5 | 12.6 ± 0.1 | 81.9 ± 1.2 | 62.1 ± 0.7 | 60.8 ± 4.2 | 130 ± 20 | 40.0 | 140 ± 20 | 37.1 | 5.2 ± 0.3 |  |
